These results are taken from patent US7880007B2, “Bicyclic substituted phenyl piperidine modulators of muscarinic receptors” (Vertex Pharmaceuticals Incorporated, priority 2004, dated 2011).

The Emax is the maximal effect, on the per cent scale that the assay sets.

Common to all, as to format: cell-based
One experiment deals with T1, M1 muscarinic receptor (Homo sapiens, UniProt P11229).
T1 construct: expressed in transfected cells; host or cells: CHO (M1-CHO)
T1 sequence (P11229 1-460): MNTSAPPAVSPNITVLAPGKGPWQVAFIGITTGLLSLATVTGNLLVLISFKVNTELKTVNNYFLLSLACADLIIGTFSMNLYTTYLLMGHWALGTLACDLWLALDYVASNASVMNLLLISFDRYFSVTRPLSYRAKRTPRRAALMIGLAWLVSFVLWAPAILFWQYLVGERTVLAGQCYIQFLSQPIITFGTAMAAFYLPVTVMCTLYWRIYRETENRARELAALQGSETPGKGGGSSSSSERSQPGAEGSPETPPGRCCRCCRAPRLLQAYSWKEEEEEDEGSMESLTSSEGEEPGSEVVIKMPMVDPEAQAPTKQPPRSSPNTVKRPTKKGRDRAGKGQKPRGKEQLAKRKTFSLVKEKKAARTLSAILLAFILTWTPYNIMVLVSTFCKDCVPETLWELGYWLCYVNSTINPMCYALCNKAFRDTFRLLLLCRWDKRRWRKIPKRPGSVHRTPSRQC
As to the kind of experiment: Functional mobilization of intracellular calcium (FLIPR), M1-CHO cells. Conditions: for Emax: 100% efficacy = maximum response obtained with the Carbachol control; for M1 Activity: M1-CHO cells, calcium mobilization (FLIPR). A digest of the protocol: (§1)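 Calcium mobilisation read by FLIPR over 60 s (ex 488/em 540 nm) in recombinant muscarinic CHO lines loaded with calcium dye plus 1 mM probenecid. Compounds tested as agonists alone, or as inhibitors against EC80 carbachol after 15 min pre-incubation or co-addition; 0.5% DMSO; efficacy scaled to carbachol maximal response.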
(In general: Calcium assays in cells follow changes in intracellular calcium, usually with a dye or a luminescent sensor.)

A further experiment deals with T2, M2 muscarinic receptor (Homo sapiens, UniProt P08172).
T2 construct: expressed in transfected cells; host or cells: CHO (M2-CHO)
T2 sequence (P08172 1-466): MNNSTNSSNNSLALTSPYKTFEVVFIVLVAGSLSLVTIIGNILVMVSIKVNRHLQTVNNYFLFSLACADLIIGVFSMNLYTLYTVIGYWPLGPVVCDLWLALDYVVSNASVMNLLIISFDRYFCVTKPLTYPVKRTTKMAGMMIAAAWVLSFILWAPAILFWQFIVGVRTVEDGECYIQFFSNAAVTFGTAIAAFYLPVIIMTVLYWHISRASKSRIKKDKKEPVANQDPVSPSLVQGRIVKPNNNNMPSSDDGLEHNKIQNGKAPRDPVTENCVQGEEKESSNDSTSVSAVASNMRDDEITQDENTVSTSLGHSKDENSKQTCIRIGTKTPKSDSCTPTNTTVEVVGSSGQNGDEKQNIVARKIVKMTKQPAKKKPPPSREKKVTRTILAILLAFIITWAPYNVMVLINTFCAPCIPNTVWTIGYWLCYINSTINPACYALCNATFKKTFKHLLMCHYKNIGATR
Briefly: Functional mobilization of intracellular calcium (FLIPR), M2-CHO cells. As to conditions: for Emax: 100% efficacy = maximum response obtained with the Carbachol control; for M2 Activity: M2-CHO cells, calcium mobilization (FLIPR). A digest of the protocol: as §1

The target of the next experiment is T3, M3 muscarinic receptor (Homo sapiens, UniProt P20309).
T3 construct: expressed in transfected cells; host or cells: CHO (M3-CHO)
T3 sequence (P20309 whole entry): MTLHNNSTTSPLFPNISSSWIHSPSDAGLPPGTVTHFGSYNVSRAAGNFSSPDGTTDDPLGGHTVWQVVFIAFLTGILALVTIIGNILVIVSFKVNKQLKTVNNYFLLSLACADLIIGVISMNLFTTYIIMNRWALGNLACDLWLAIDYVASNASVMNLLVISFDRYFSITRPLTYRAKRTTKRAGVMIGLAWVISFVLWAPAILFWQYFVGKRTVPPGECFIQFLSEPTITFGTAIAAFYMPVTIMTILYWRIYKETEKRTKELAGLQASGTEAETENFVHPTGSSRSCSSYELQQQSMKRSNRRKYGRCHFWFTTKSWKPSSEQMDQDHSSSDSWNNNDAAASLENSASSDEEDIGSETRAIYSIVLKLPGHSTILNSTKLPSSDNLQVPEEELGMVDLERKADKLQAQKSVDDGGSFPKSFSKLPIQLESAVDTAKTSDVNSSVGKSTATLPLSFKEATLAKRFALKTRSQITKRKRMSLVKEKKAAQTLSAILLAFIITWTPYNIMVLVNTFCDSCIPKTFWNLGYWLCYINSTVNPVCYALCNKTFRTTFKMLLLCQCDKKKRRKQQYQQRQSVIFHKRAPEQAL
As to the kind of experiment: Functional mobilization of intracellular calcium (FLIPR), M3-CHO cells. Conditions: for Emax: 100% efficacy = maximum response obtained with the Carbachol control; for M3 Activity: M3-CHO cells, calcium mobilization (FLIPR). A digest of the protocol:
as §1

For a further experiment, the target named is T4, M4 muscarinic receptor (Homo sapiens, UniProt P08173).
T4 construct: expressed in transfected cells; host or cells: CHO (M4-CHO)
T4 sequence (P08173 1-479): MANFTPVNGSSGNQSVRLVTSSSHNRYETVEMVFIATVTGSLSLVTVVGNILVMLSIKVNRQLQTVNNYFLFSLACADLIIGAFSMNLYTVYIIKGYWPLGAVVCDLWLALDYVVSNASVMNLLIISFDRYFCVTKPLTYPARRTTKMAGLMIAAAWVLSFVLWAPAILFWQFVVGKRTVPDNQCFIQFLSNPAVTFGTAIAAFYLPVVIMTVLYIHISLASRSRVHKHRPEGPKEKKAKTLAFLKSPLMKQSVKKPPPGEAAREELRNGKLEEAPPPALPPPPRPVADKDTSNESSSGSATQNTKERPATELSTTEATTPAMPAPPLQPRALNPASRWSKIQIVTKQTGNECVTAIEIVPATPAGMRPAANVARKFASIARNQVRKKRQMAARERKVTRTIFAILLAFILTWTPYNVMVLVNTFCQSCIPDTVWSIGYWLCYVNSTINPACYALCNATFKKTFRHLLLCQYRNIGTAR
Briefly: Functional mobilization of intracellular calcium (FLIPR), M4-CHO cells. Conditions: for Emax: 100% efficacy = maximum response obtained with the Carbachol control; for M4 Activity: M4-CHO cells, calcium mobilization (FLIPR). A digest of the protocol: as §1

With `COc1ccc(-c2cccc(C)c2)cc1C1CCN([C@H]2C[C@H]3CC[C@H]2C3)CC1` [Compound 277], on M1 muscarinic receptor, the Emax was < 25% and the “M1 Activity” value is “+ (activity was measured to be greater than 5.0 μM)”. At M2 muscarinic receptor, the Emax is < 25% and the “M2 Activity” value is on record as “+ (activity was measured to be greater than 5.0 μM)”. For the same compound, at M3 muscarinic receptor, the Emax was < 25% and the “M3 Activity” value was “+ (activity was measured to be greater than 5.0 μM)”. For the same compound, at M4 muscarinic receptor, the Emax was < 25% and the “M4 Activity” value was “+ (activity was measured to be greater than 5.0 μM)”.

`COc1ccc(Cl)cc1C1CCN(CC2CC3CCC2CC3)CC1` (stereo not drawn) [Compound 280]: at M1 muscarinic receptor, the Emax is < 25% and the “M1 Activity” value is “+ (activity was measured to be greater than 5.0 μM)”. Further, at M2 muscarinic receptor, the Emax was < 25% and the “M2 Activity” value is “+ (activity was measured to be greater than 5.0 μM)”. Also, at M3 muscarinic receptor, the maximal response (Emax) was < 25% and the “M3 Activity” value is “+ (activity was measured to be greater than 5.0 μM)”. On M4 muscarinic receptor, the Emax lay within 25 to 100% and the “M4 Activity” value is listed as “++ (activity was measured to be from 1.0 μM to 5.0 μM)”.

With `Cc1ccccc1C1CCN(C2CCOCC2)CC1` [Compound 281], at M1 muscarinic receptor, the maximum response (Emax) was in the range of 25 to 100% and the “M1 Activity” value is given as “+ (activity was measured to be greater than 5.0 μM)”. Moreover, on M2 muscarinic receptor, the maximal response (Emax) was < 25% and the “M2 Activity” value is listed as “+ (activity was measured to be greater than 5.0 μM)”. Further, on M3 muscarinic receptor, the Emax was < 25% and the “M3 Activity” value was “+ (activity was measured to be greater than 5.0 μM)”. Moreover, on M4 muscarinic receptor, the Emax is 25 to 100% and the “M4 Activity” value is recorded as “+++ (activity was measured to be less than 1.0 μM)”.

For `CCC(=O)c1ccc(OC)c(C2CCN([C@H]3C[C@H]4CC[C@H]3C4)CC2)c1` [Compound 282], on M1 muscarinic receptor, the Emax is < 25% and the “M1 Activity” value is “+ (activity was measured to be greater than 5.0 μM)”. At M2 muscarinic receptor, the Emax is < 25% and the “M2 Activity” value is “+ (activity was measured to be greater than 5.0 μM)”. On M3 muscarinic receptor, the maximal effect (Emax) was < 25% and the “M3 Activity” value is reported as “+ (activity was measured to be greater than 5.0 μM)”. Further, at M4 muscarinic receptor, the Emax was in the range of 25 to 100% and the “M4 Activity” value was “++ (activity was measured to be from 1.0 μM to 5.0 μM)”.

As for `Cc1cccc(-c2ccccc2C2CCN([C@H]3C[C@H]4CC[C@H]3C4)CC2)c1` [Compound 283], on M1 muscarinic receptor, the maximal effect (Emax) was < 25% and the “M1 Activity” value is given as “+ (activity was measured to be greater than 5.0 μM)”. For the same compound, on M2 muscarinic receptor, the Emax was < 25% and the “M2 Activity” value was “+ (activity was measured to be greater than 5.0 μM)”. Also, at M3 muscarinic receptor, the Emax is < 25% and the “M3 Activity” value was “+ (activity was measured to be greater than 5.0 μM)”. In addition, on M4 muscarinic receptor, the Emax was in the range of 25 to 100% and the “M4 Activity” value was “++ (activity was measured to be from 1.0 μM to 5.0 μM)”.

As for `COc1ccc(-c2ccc3c(c2)OCO3)cc1C1CCN(C2C[C@@H]3CC[C@@H]2C3)CC1` (stereo partly drawn) [Compound 284], at M1 muscarinic receptor, the maximum response (Emax) lay within 25 to 100% and the “M1 Activity” value is “+ (activity was measured to be greater than 5.0 μM)”. Further, on M2 muscarinic receptor, the Emax is < 25% and the “M2 Activity” value is “+ (activity was measured to be greater than 5.0 μM)”. Also, on M3 muscarinic receptor, the Emax is 25 to 100% and the “M3 Activity” value is recorded as “+ (activity was measured to be greater than 5.0 μM)”. Moreover, at M4 muscarinic receptor, the maximum response (Emax) lay in the range of 25 to 100% and the “M4 Activity” value is reported as “+ (activity was measured to be greater than 5.0 μM)”.

For `CNC(=O)c1ccc(-c2ccc(OC)c(C3CCN(C4CCOCC4)CC3)c2)cc1` [Compound 285], at M1 muscarinic receptor, the maximal response (Emax) was < 25% and the “M1 Activity” value was “+ (activity was measured to be greater than 5.0 μM)”. Further, on M2 muscarinic receptor, the Emax was < 25% and the “M2 Activity” value is given as “+ (activity was measured to be greater than 5.0 μM)”. In addition, on M3 muscarinic receptor, the Emax was < 25% and the “M3 Activity” value was “+ (activity was measured to be greater than 5.0 μM)”. On M4 muscarinic receptor, the maximal response (Emax) was < 25% and the “M4 Activity” value is listed as “+ (activity was measured to be greater than 5.0 μM)”.

Regarding `COc1ccc(C#CC2(O)CCCC2)cc1C1CCN([C@H]2C[C@H]3CC[C@H]2C3)CC1` [Compound 287], at M1 muscarinic receptor, the Emax is < 25% and the “M1 Activity” value is given as “+ (activity was measured to be greater than 5.0 μM)”. In addition, on M2 muscarinic receptor, the Emax is < 25% and the “M2 Activity” value is on record as “+ (activity was measured to be greater than 5.0 μM)”. In addition, at M3 muscarinic receptor, the Emax is < 25% and the “M3 Activity” value is “+ (activity was measured to be greater than 5.0 μM)”. At M4 muscarinic receptor, the Emax was 25 to 100% and the “M4 Activity” value was “+++ (activity was measured to be less than 1.0 μM)”.

`CCOC(=O)N1CCC(N2C3CCC2CC(c2ccccc2OC)C3)CC1` (stereo not drawn) [Compound 289, ethyl 4-(3-(2-methoxyphenyl)-8-azabicyclo-[3.2.1]octan-8-yl)piperidine-1-carboxylate]: on M1 muscarinic receptor, the Emax is < 25% and the “M1 Activity” value is given as “+ (activity was measured to be greater than 5.0 μM)”. Further, at M2 muscarinic receptor, the maximal response (Emax) was < 25% and the “M2 Activity” value is listed as “+ (activity was measured to be greater than 5.0 μM)”. For the same compound, at M3 muscarinic receptor, the Emax was < 25% and the “M3 Activity” value was “+ (activity was measured to be greater than 5.0 μM)”. On M4 muscarinic receptor, the Emax lay within 25 to 100% and the “M4 Activity” value is reported as “++ (activity was measured to be from 1.0 μM to 5.0 μM)”.

In the case of `Cc1ccc(F)c(C2CCN(C3C[C@H]4CC[C@H]3C4)CC2)c1` (stereo partly drawn) [Compound 290], at M1 muscarinic receptor, the Emax lay within 25 to 100% and the “M1 Activity” value is listed as “++ (activity was measured to be from 1.0 μM to 5.0 μM)”. In addition, on M2 muscarinic receptor, the Emax fell in the range of 25 to 100% and the “M2 Activity” value is given as “+ (activity was measured to be greater than 5.0 μM)”. On M3 muscarinic receptor, the maximal response (Emax) is < 25% and the “M3 Activity” value is “+ (activity was measured to be greater than 5.0 μM)”. Further, at M4 muscarinic receptor, the maximal effect (Emax) fell in the range of 25 to 100% and the “M4 Activity” value is reported as “++ (activity was measured to be from 1.0 μM to 5.0 μM)”.

For the compound `COc1ccccc1C1CCN(CC2=CC[C@@H]3C[C@@H]2C3(C)C)CC1` [Compound 291], on M1 muscarinic receptor, the Emax was < 25% and the “M1 Activity” value is reported as “+ (activity was measured to be greater than 5.0 μM)”. In addition, on M2 muscarinic receptor, the Emax was < 25% and the “M2 Activity” value is on record as “+ (activity was measured to be greater than 5.0 μM)”. Moreover, at M3 muscarinic receptor, the Emax was < 25% and the “M3 Activity” value is on record as “+ (activity was measured to be greater than 5.0 μM)”. Besides, at M4 muscarinic receptor, the Emax was < 25% and the “M4 Activity” value was “+ (activity was measured to be greater than 5.0 μM)”.

For the compound `COc1ccc(F)cc1C1(OC)CCN(C[C@H]2C[C@H]3C=C[C@H]2C3)CC1` [Compound 292], at M1 muscarinic receptor, the maximal response (Emax) was in the range of 25 to 100% and the “M1 Activity” value is “++ (activity was measured to be from 1.0 μM to 5.0 μM)”. Besides, on M2 muscarinic receptor, the maximal effect (Emax) is 25 to 100% and the “M2 Activity” value is “++ (activity was measured to be from 1.0 μM to 5.0 μM)”. In addition, at M3 muscarinic receptor, the maximal effect (Emax) is < 25% and the “M3 Activity” value was “+ (activity was measured to be greater than 5.0 μM)”. In addition, at M4 muscarinic receptor, the maximal effect (Emax) lay within 25 to 100% and the “M4 Activity” value was “+++ (activity was measured to be less than 1.0 μM)”.
